Experimental data taken from patent publication US10532068B2, “Dual molecular delivery of oligonucleotides and peptide containing conjugates” (Merck Sharp & Dohme Corp., priority 2013, dated 2020).
Strand notation (5' to 3'): a small letter for the sugar, then the base; units joined by * are phosphorothioate-linked, units joined directly phosphodiester-linked; [ ] holds rarer units or linkages, { } end groups; capitals alone tell only the bases. {NH2C6-invAb} = cap: inverted abasic residue carrying an aminohexyl phosphate (attachment handle); [invAb] = inverted abasic unit; m = 2'-O-methyl; f = 2'-fluoro

Legend:
CTNNB1 = assay: In vivo evaluation in mice: liver mRNA knockdown measurement (TaqMan qPCR); parameters: species or system CD-1 mice; conditions: for time course of mRNA KD in DMD format compared to 5-fold higher dose of siRNA-III alone: FIG. 4, sequential dosing, peptide 15 min after siRNA
Procedure: (§1) Female CD-1 mice (Charles River) were injected in accordance with either a sequential dosing paradigm or a co-dosing paradigm. In the sequential dosing paradigm, the targeted siRNA (SCE) is dosed at t=0 and the targeted peptide is separately dosed up to 2 hr before the SCE (−2 hr) or up to 24 hr after the SCE (+24 hr). In the co-dosing paradigm, the SCE and peptides are co-formulated and dosed together in the same formulation as a single injection at t=0. The mice were dosed either by intravenous (i.v.) or subcutaneous (s.c.) injection of SCE and peptide. For the i.v. doses, the compounds were injected into the tail vein of the mice. For the s.c. doses, the compounds were injected in the subcutaneous space on the back of the mouse between the shoulder blades. At the indicated harvest times (measured from t=0 when the siRNA was dosed, regardless of when the peptide was dosed), the animals were sacrificed and 3 mm liver punches were collected, preserved in RNAlater (Ambion), and stored at 4° C. Separate 5 mm liver punches were collected, placed in 96-well plates, frozen on dry ice, and stored at −80° C. until use.
The 3 mm liver punches were removed from RNAlater and homogenized in Trizol (Invitrogen) using a bead mill tissue lyser (Qiagen); disruption was performed for two 5-minute cycles at 30 Hz. RNA extraction was performed using 1-bromo-2-chloropropane (Acros Organics) and total RNA was isolated from the aqueous phase using the MagMax RNA isolation method (Ambion). […] TaqMan qPCR analysis was performed with an ABI 7900 Real-Time PCR System using TaqMan Fast Advanced Master Mix (Applied Biosystems). All TaqMan probes and primers for CTNNB1 and PPIB (housekeeping gene) were purchased from Applied Biosystems as pre-validated gene expression assays. Results are calculated by the comparative Ct method, where the difference between the CTNNB1 Ct value and the PPIB Ct value (ΔCt) is calculated and then further normalized relative to the PBS control by taking a second difference (ΔΔCt), as described previously (1).

[1] = siRNA metabolic stability (FIG. 6 legend); conditions: order siRNA-I>siRNA-V>siRNA-VI
RISC = biological target: T1, RISC (Mus musculus, UniProt Q8CJG0); assay: Quantitation of siRNA bound to RISC in mouse liver (Ago2 immunoprecipitation, stem-loop qPCR); assay type: in vivo, CD-1 mice; conditions: FIG. 5
T1 construct: from tissue; host or cells: liver of female CD-1 mice
Procedure: as §1, with “use. […]” for “use.”

T1 sequence (Q8CJG0 whole entry): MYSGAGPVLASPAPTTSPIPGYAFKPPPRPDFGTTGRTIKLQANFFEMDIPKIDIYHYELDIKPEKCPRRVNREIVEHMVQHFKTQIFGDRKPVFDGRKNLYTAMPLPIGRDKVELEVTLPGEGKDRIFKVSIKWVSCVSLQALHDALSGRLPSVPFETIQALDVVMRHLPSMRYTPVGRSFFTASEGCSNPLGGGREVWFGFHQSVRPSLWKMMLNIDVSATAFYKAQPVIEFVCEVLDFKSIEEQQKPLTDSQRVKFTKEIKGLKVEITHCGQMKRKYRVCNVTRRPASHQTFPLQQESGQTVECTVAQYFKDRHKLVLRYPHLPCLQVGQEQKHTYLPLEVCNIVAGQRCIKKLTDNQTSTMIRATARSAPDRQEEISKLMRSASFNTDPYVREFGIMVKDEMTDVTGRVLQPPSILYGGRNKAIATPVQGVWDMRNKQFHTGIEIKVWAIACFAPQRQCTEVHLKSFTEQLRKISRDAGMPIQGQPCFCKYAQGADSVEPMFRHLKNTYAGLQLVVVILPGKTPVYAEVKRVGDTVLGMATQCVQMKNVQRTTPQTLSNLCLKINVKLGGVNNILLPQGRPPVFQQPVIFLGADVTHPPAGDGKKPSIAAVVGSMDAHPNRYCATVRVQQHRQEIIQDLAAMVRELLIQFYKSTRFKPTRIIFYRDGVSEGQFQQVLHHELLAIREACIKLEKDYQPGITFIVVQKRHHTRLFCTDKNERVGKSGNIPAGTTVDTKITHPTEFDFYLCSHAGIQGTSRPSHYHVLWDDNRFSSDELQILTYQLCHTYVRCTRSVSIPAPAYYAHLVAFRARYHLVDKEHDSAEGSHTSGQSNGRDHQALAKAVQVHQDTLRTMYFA

| Substance | time course of mRNA KD in DMD format compared to 5-fold higher dose of siRNA-III alone (CTNNB1) | effect of the timing of peptide dose on activity (CTNNB1; FIG. 6, peptide within 2 hr before up to 24 hr after siRNA dose) | siRNA stability (metabolic stability) [1] | time course of RISC loading (RISC) | activity (KD) (CTNNB1; FIG. 6, peptide dose times within 2 hr (before or after) the siRNA) |
| --- | --- | --- | --- | --- | --- |
| siRNA-I: CTNNB1 ds siRNA, passenger SEQ ID NO 1803, guide SEQ ID NO 1804 (sense {NH2C6-invAb}-mCmUfGmUmUfGfGfAmUmUfGfAmUmUmCfGfAfAfAmU*mU[invAb]; guide mU*fU*mU*fCmGfAmAfUmCfAmAfUmCfCmAfAmCfAmGmU*mU; targeting ligand attached via linker, site not given here) | faster and greater KD | does not significantly change the activity | highly stable | – | – |
| siRNA-III: CTNNB1 ds siRNA, passenger SEQ ID NO 1803, guide SEQ ID NO 1806 (vinylPmoeT) (sense CUGUUGGAUUGAUUCGAAAUU; guide TUUCGAAUCAAUCCAACAGUU; vinylphosphonate MOE T; (1)..(1) aminohexyl phosphate inverted abasic cap; (1)..(2) 2′-O-methyl; (3)..(3) 2′-deoxy-2′-fluoro; (4)..(5) 2′-O-methyl; (6)..(8) 2′-deoxy-2′-fluoro; (9)..(10) 2′-O-methyl; (11)..(12) 2′-deoxy-2′-fluoro; (13)..(15) 2′-O-methyl; (16)..(19) 2′-deoxy-2′-fluoro; (20)..(21) 2′-O-methyl; (20)..(21) phosphorothioate internucleotide linkage; (21)..(21) inverted abasic cap; (1)..(1) terminal vinyl phosphate; (1)..(1) 2′-methoxyethoxy; (2)..(21) ribonucleotide unmodified or modified as described for this sequence; (2)..(2) 2′-deoxy-2′-fluoro; (3)..(3) 2′-O-methyl; (4)..(4) …) | faster and greater KD | – | – | faster RISC loading | – |
| siRNA-V: CTNNB1 ds siRNA, passenger SEQ ID NO 1803, guide SEQ ID NO 1808 (sense {NH2C6-invAb}-mCmUfGmUmUfGfGfAmUmUfGfAmUmUmCfGfAfAfAmU*mU[invAb]; guide mUfUmUfCmGfAmAfUmCfAmAfUmCfCmAfAmCfAmGmU*mU) | – | – | moderately stable | – | ~25% |
